We go through two compounds from PMC4958397, “Synthesis, antibacterial and antiproliferative potential of some new 1-pyridinecarbonyl-4-substituted thiosemicarbazide derivatives” (Medicinal Chemistry Research, 2016).

Values after ≈ are worked out from the molar mass of the structure shown. Like-named read-outs stand apart in the source and are kept apart here.

What is called IC50 is the concentration needed to halve the response being measured.

Assay in all cases: Cell proliferation MTT assay
What all share (assay type): cell-based

In test [1] the test system is BJ (normal human skin fibroblasts). Particulars: 96 h; for IC50: Homo sapiens, Skin fibroblast, MTT, mean ± SD, read-out: IC50, antiproliferative activity, BJ. Here is the method: (§1) Normal human skin fibroblasts (BJ), human hepatocellular carcinoma (HepG2) and human breast adenocarcinoma (MCF-7) were obtained from American Type Culture Collection (ATCC, England, UK). The cells were cultured in Eagle’s minimum essential medium (EMEM, ATCC) supplemented with 10 % fetal bovine serum (FBS, PAA Laboratories), 100 U/mL penicillin and 100 μg/mL streptomycin (Sigma-Aldrich). In the case of the MCF-7 cell line, the culture medium was additionally supplemented with 0.01 μg/mL of human recombinant insulin (Sigma-Aldrich). The cells were grown in 75-cm^2 flasks and maintained at 37 °C in a humidified atmosphere of 5 % CO2 and 95 % air.
(§2) In order to evaluate cell proliferation, the cells were seeded in flat-bottom 96-well plates in 100 μL of a complete growth medium at a concentration of 2 × 10^3 cells/well (BJ), 1.5 × 10^4 cells/well (HepG2) and 2.5 × 10^4 cells/well (MCF-7) and incubated for 24 h at 37 °C in a humidified atmosphere of 5 % CO2. Before drug exposure, the synthesized compounds (1–10) were dissolved in DMSO and then diluted in a complete culture medium supplemented with 10 % FBS. Subsequently, the growth medium was gently removed and the cells were exposed to 100 μL of serial dilutions of the investigated compounds at concentrations ranging from 0.05 to 200 μg/mL. Untreated cells were used as negative controls, and different concentrations of DMSO were used as the solvent control. After 96-h incubation at 37 °C in a humidified atmosphere of 5 % CO2, cell proliferation was assessed using the MTT test as described previously (Cytotoxicity assay). The MTT assay was repeated in three independent experiments in quadruplicates. The half-maximal inhibitory concentration (IC50) was defined as the compound concentration (μg/mL) required to inhibit cell proliferation to 50 %.
(§3) The results of the in vitro cell culture experiments were presented as mean values ± standard deviation (SD) or as mean values ± standard error of the mean (SEM). The data were analyzed using one-way ANOVA test followed by Dunnett’s test. Differences were considered as significant with p < 0.01 (GraphPad Prism 5, Version 5.04 Software). The values of CC50 and IC50 were calculated via 4-parameter nonlinear regression analyses using GraphPad Prism 5, version 5.04.

The test system of test [2] is MCF-7 (human breast adenocarcinoma). Particulars: MCF7, 96 h, read-out: IC50, antiproliferative activity, MCF-7. Here is the method:
as §1, §2, §3

Test [3] deals with HepG2 (human hepatocellular carcinoma). Particulars: 96 h; for IC50: Homo sapiens, HepG2, MTT, read-out: IC50, antiproliferative activity, HepG2. On the procedure: as §1, §2, §3
The mark [4] stands for this setting: 10 μg/mL, proliferation reduced to.

In the case of `O=C(NNC(=S)Nc1ccc(Cl)cc1Cl)c1ccccn1` [Compound 4, 4-(2,4-Dichlorophenyl)-1-(pyridin-2-yl)carbonylthiosemicarbazide], the half-inhibitory concentration (IC50) was 1.86 ± 0.44 µg/mL (≈ 5.45 µM) in test [1]; 8.63 µg/mL in test [2] (mean ± SD); 25.3 µM in test [2] (same value in µM); 2.09 µg/mL in test [3] (mean ± SD); 6.12 µM in test [3] (same value in µM).
Take `O=C(NNC(=S)Nc1ccccc1Cl)c1ccccn1` [Compound 2, 4-(2-Chlorophenyl)-1-(pyridin-2-yl)carbonylthiosemicarbazide]: the “cell proliferation compared to the control, BJ” value in test [1] (setting [4]) is recorded as 32%. Besides, the 50% inhibitory concentration (IC50) is 3.06 ± 0.46 µg/mL (≈ 9.97 µM) in test [1], 14.8 ± 1.03 µg/mL in test [2] (mean ± SD) and 2.71 ± 0.23 µg/mL in test [3] (mean ± SD). Moreover, in test [3] (setting [4]), the “cell proliferation compared to the control, HepG2” value is 18.9%.
